# In US8476265B2, “Compounds-801” (AstraZeneca AB, priority 2010, dated 2013):
# Legend:
# [1] = target: T1, Adrenergic β2 (Homo sapiens, UniProt P07550); experiment: Adrenergic β2 mediated cAMP production in H292 cells (AlphaScreen), concentration response; format: cell-based; settings: for EC50: 60 min, 300 μM rolipram, read-out: β2 pEC50 (converted); for β2 Intrinsic Activity: fraction relative to the maximum activity determined for formoterol
# T1 construct: Adherent H292 cells are removed from tissue culture flasks by treatment with Accutase™ cell detachment solution; endogenous in cells; host or cells: H292 cells
# T1 sequence (P07550 whole entry): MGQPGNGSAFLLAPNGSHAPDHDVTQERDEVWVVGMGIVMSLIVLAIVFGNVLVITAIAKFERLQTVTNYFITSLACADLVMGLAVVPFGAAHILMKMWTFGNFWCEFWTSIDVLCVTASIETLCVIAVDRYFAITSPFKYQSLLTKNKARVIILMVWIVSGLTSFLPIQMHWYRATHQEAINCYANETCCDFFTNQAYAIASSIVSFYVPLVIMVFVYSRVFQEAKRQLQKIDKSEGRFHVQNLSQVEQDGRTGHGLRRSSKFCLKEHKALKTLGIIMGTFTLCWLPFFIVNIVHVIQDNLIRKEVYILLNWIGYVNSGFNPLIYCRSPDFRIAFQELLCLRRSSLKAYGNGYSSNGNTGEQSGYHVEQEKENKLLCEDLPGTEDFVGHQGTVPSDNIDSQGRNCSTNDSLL
# Summary of the method: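 Intracellular cAMP in lysates read by AlphaScreen, calibrated with cAMP standards; curves fitted for pEC50, with intrinsic activity as a fraction of formoterol's maximum. Agonist exposure 60 min at room temperature after 10 min rolipram (300 μM final), 1% DMSO, HEPES-buffered HBSS pH 7.4.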
# [2] = target: T2, human muscarinic acetylcholine M3 receptor (Homo sapiens, UniProt P20309); experiment: Muscarinic 3 receptor binding assay ([3H]NMS competition, SPA), pIC50; settings: [3H]NMS 0.1 nM, CHO-K1 cell membranes expressing human M3 receptor
# T2 construct: expressed in transfected cells; host or cells: CHO-K1 (Chinese Hamster Ovary) cell membranes
# T2 sequence (P20309 whole entry): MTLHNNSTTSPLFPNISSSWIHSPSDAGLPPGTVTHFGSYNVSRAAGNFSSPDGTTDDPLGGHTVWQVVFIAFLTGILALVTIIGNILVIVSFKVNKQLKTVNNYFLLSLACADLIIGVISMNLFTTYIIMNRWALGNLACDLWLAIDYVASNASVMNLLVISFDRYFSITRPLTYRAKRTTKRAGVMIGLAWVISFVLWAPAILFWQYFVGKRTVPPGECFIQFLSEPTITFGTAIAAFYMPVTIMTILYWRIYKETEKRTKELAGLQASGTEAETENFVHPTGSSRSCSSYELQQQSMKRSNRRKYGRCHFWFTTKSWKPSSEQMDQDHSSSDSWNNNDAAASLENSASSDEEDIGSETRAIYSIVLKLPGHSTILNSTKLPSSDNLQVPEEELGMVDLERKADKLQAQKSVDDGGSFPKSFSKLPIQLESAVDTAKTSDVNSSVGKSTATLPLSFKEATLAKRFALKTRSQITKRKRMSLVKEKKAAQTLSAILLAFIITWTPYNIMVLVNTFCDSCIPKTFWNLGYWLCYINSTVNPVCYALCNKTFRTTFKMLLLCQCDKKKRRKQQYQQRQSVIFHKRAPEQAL
# Summary of the method: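 SPA beads precoated with human M3-expressing CHO-K1 membranes were incubated 16 h at room temperature with serially diluted compound and 0.1 nM [3H]NMS (pH 7.4 HEPES buffer, MgCl2, BSA, 1% DMSO). Atropine (1 μM) defined non-specific binding; pIC50 is the 50% reduction in specific binding.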
EC50 [1],β2 Intrinsic Activity [1],IC50 [2],Structure (SMILES)
79.4 nM,1.1,0.316 nM,"CC(C)c1nc(C(=O)N2CCOC3(CCN(Cc4cccc(CCOCCC(=O)N(CCNCCc5ccc(O)c6[nH]c(=O)sc56)C5CCOCC5)c4F)CC3)C2)cs1 [Example 11, 3-(2-Fluoro-3-((4-(2-isopropylthiazole-4-carbonyl)-1-oxa-4,9-diazaspiro[5.5]undecan-9-yl)methyl)phenethoxy)-N-(2-(2-(4-hydroxy-2-oxo-2,3-dihydrobenzo[d]thiazol-7-yl)ethylamino)ethyl)-N-(tetrahydro-2H-pyran-4-yl)propanamide ditrifluoroacetate]"
20 nM,1.0,0.398 nM,"CCc1nc(C(=O)N2CCOC3(CCN(Cc4cccc(CCOCCC(=O)N(CCNCCc5ccc(O)c6c5OCC(=O)N6)[C@H](C)CC)c4Cl)CC3)C2)cs1 [Example 31, (R)—N-sec-Butyl-3-(2-chloro-3-((4-(2-ethylthiazole-4-carbonyl)-1-oxa-4,9-diazaspiro[5.5]undecan-9-yl)methyl)phenethoxy)-N-(2-(2-(5-hydroxy-3-oxo-3,4-dihydro-2H-benzo[b][1,4]oxazin-8-yl)ethylamino)ethyl)propanamide ditrifluoroacetate]"
200 nM,1.2,0.0631 nM,"CC(C)c1nc(C(=O)N2CCOC3(CCN(Cc4csc(CCOCCC(=O)N(CCNCCc5ccc(O)c6c5OCC(=O)N6)C5CCCCC5)c4)CC3)C2)cs1 [Example 56, N-Cyclohexyl-N-(2-(2-(5-hydroxy-3-oxo-3,4-dihydro-2H-benzo[b][1,4]oxazin-8-yl)ethylamino)ethyl)-3-(2-(4-((4-(2-isopropylthiazole-4-carbonyl)-1-oxa-4,9-diazaspiro[5.5]undecan-9-yl)methyl)thiophen-2-yl)ethoxy)propanamide ditrifluoroacetate]"
158 nM,1.0,1.26 nM,"CC(C)c1cccc(C(=O)N2CCOC3(CCN(Cc4cccc(CCOCCC(=O)N(CCNCCc5ccc(O)c6c5OCC(=O)N6)C5CCCCC5)c4)CC3)C2)n1 [Example 97, N-Cyclohexyl-N-(2-(2-(5-hydroxy-3-oxo-3,4-dihydro-2H-benzo[b][1,4]oxazin-8-yl)ethylamino)ethyl)-3-(3-((4-(6-isopropylpicolinoyl)-1-oxa-4,9-diazaspiro[5.5]undecan-9-yl)methyl)phenethoxy)propanamide]"
200 nM,1.0,0.2 nM,"O=C1COc2c(CCNCCN(C(=O)CCOCCc3cccc(CN4CCC5(CC4)CN(C(=O)c4csc(C6CCCC6)n4)CCO5)c3)C3CCCCC3)ccc(O)c2N1 [Example 88, N-Cyclohexyl-3-(3-((4-(2-cyclopentylthiazole-4-carbonyl)-1-oxa-4,9-diazaspiro[5.5]undecan-9-yl)methyl)phenethoxy)-N-(2-(2-(5-hydroxy-3-oxo-3,4-dihydro-2H-benzo[b][1,4]oxazin-8-yl)ethylamino)ethyl)propanamide]"
79.4 nM,1.2,0.251 nM,"Cc1ccc(CN(CCNCCc2ccc(O)c3c2OCC(=O)N3)C(=O)CCOCCc2cccc(CN3CCC4(CC3)CN(C(=O)c3csc(C(C)C)n3)CCO4)c2F)cc1 [Example 22, 3-(2-Fluoro-3-(4-(2-isopropylthiazole-4-carbonyl)-1-oxa-4,9-diazaspiro[5.5]undecan-9-yl)methyl)phenethoxy)-N-(2-(2-(5-hydroxy-3-oxo-3,4-dihydro-2H-benzo[b][1,4]oxazin-8-yl)ethylamino)ethyl)-N-(4-methylbenzyl)propanamide ditrifluoroacetate]"
3.16 nM,1.0,3.98 nM,"CCN(CCNCCc1ccc(O)c2[nH]c(=O)sc12)C(=O)CCOCCc1cccc(CCN2CCC3(CC2)CN(C(=O)c2csc(C(C)C)n2)CCO3)c1 [Example 35, N-Ethyl-N-(2-(2-(4-hydroxy-2-oxo-2,3-dihydrobenzo[d]thiazol-7-yl)ethylamino)ethyl)-3-(3-(2-(4-(2-isopropylthiazole-4-carbonyl)-1-oxa-4,9-diazaspiro[5.5]undecan-9-yl)ethyl)phenethoxy)propanamide ditrifluoroacetate]"
251 nM,1.1,0.316 nM,"CCc1ccc(C(=O)N2CCOC3(CCN(Cc4cccc(CCOCCC(=O)N(CCNCCc5ccc(O)c6c5OCC(=O)N6)C5CCCCC5)c4)CC3)C2)s1 [Example 83, N-Cyclohexyl-3-(3-((4-(5-ethylthiophene-2-carbonyl)-1-oxa-4,9-diazaspiro[5.5]undecan-9-yl)methyl)phenethoxy)-N-(2-(2-(5-hydroxy-3-oxo-3,4-dihydro-2H-benzo[b][1,4]oxazin-8-yl)ethylamino)ethyl)propanamide]"
39.8 nM,1.0,0.501 nM,"CC(C)c1nc(C(=O)N2CCOC3(CCN(Cc4cccc(CCOCCC(=O)N(CCNCCc5ccc(O)c6c5OCC(=O)N6)[C@H](C)C(C)C)c4F)CC3)C2)cs1 [Example 12, R)-3-(2-Fluoro-3-((4-(2-isopropylthiazole-4-carbonyl)-1-oxa-4,9-diazaspiro[5.5]undecan-9-yl)methyl)phenethoxy)-N-(2-(2-(5-hydroxy-3-oxo-3,4-dihydro-2H-benzo[b][1,4]oxazin-8-yl)ethylamino)ethyl)-N-(3-methylbutan-2-yl)propanamide ditrifluoroacetate]"
158 nM,1.0,0.2 nM,"O=C1COc2c(CCNCCN(C(=O)CCOCCc3cccc(CN4CCC5(CC4)CN(C(=O)c4csc(C6CCC6)n4)CCO5)c3)C3CCCCC3)ccc(O)c2N1 [Example 87, 3-(3-((4-(2-Cyclobutylthiazole-4-carbonyl)-1-oxa-4,9-diazaspiro[5.5]undecan-9-yl)methyl)phenethoxy)-N-cyclohexyl-N-(2-(2-(5-hydroxy-3-oxo-3,4-dihydro-2H-benzo[b][1,4]oxazin-8-yl)ethylamino)ethyl)propanamide]"
398 nM,0.9,0.316 nM,"CCN(CCNCCc1ccc(O)c2[nH]c(=O)sc12)C(=O)CCOCCc1cc(CN2CCC3(CC2)CN(C(=O)c2csc(C)n2)CCO3)ccc1Cl [Example 46, 3-(2-Chloro-5-((4-(2-methylthiazole-4-carbonyl)-4-oxa-4,9-diazaspiro[5.5]undecan-9-yl)methyl)phenethoxy)-N-ethyl-N-(2-(2-(4-hydroxy-2-oxo-2,3-dihydrobenzo[d]thiazol-7-yl)ethylamino)ethyl)propanamide ditrifluoroacetate]"
100 nM,1.0,0.126 nM,"CCc1nc(C(=O)N2CCOC3(CCN(Cc4cccc(CCOCCC(=O)N(CCNCCc5ccc(O)c6c5OCC(=O)N6)C5CCCCC5)c4)CC3)C2)cs1 [Example 95, N-Cyclohexyl-3-(3-((4-(2-ethylthiazole-4-carbonyl)-1-oxa-4,9-diazaspiro[5.5]undecan-9-yl)methyl)phenethoxy)-N-(2-(2-(5-hydroxy-3-oxo-3,4-dihydro-2H-benzo[b][1,4]oxazin-8-yl)ethylamino)ethyl)propanamide]"
